Source: ChEMBL document CHEMBL1150185, “Antineoplastic agents, 195. Isolation and structure of aceratioside from Aceratium megalospermum” (1990)
Values after ≈ are worked out from the molar mass of the structure shown.

Test system: P388
Assay: Cytostatic activity against mouse P388 cells
Format: functional
Conditions: read-out: ED50 (the source's name)

O=C(O)[C@H]1CCc2c(cc(O)cc2O[C@@H]2O[C@H](CO)[C@@H](O)[C@H](O)[C@H]2O)C1 [ACERATIOSIDE]
EC50: 9 µg/mL (≈ 24.3 µM)
